{
  "source": "ChEMBL document CHEMBL1201862",
  "about": "“PubChem BioAssay data set” (2004)",
  "assay_in_all_cases": "inhibition of tumour cell growth, NCI panel, 48 h",
  "key": {"SNB-19": {"test_system": "SNB-19"}, "OVCAR-8": {"test_system": "OVCAR-8"}, "MDA-N": {"test_system": "MDA-N"}, "UACC-62": {"test_system": "UACC-62"}, "Hs-578T": {"test_system": "Hs-578T"}, "ACHN": {"test_system": "ACHN"}, "BT-549": {"test_system": "BT-549"}, "DU-145": {"test_system": "DU-145"}, "HCT-15": {"test_system": "HCT-15"}, "A549": {"test_system": "A549"}, "SK-OV-3": {"test_system": "SK-OV-3"}, "LOX IMVI": {"test_system": "LOX IMVI"}, "MOLT-4": {"test_system": "MOLT-4"}, "OVCAR-5": {"test_system": "OVCAR-5"}, "HOP-92": {"test_system": "HOP-92"}, "OVCAR-4": {"test_system": "OVCAR-4"}, "HCT-116": {"test_system": "HCT-116"}, "786-0": {"test_system": "786-0"}, "SK-MEL-5": {"test_system": "SK-MEL-5"}, "PC-3": {"test_system": "PC-3"}, "CCRF-CEM": {"test_system": "CCRF-CEM"}, "NCI-H23": {"test_system": "NCI-H23"}, "SK-MEL-28": {"test_system": "SK-MEL-28"}, "SN12C": {"test_system": "SN12C"}, "HT-29": {"test_system": "HT-29"}, "M14": {"test_system": "M14"}, "A498": {"test_system": "A498"}, "NCI-H460": {"test_system": "NCI-H460"}, "HCC 2998": {"test_system": "HCC 2998"}, "MDA-MB-231": {"test_system": "MDA-MB-231"}, "U-251": {"test_system": "U-251"}, "HL-60": {"test_system": "HL-60"}, "UACC-257": {"test_system": "UACC-257"}, "CAKI-1": {"test_system": "CAKI-1"}, "RPMI-8226": {"test_system": "RPMI-8226"}, "KM12": {"test_system": "KM12"}, "NCI/ADR-RES": {"test_system": "NCI/ADR-RES"}, "MDA-MB-435": {"test_system": "MDA-MB-435"}, "K562": {"test_system": "K562"}, "Malme-3M": {"test_system": "Malme-3M"}, "SNB-75": {"test_system": "SNB-75"}, "SF-539": {"test_system": "SF-539"}, "NCI-H226": {"test_system": "NCI-H226"}, "MCF7": {"test_system": "MCF7"}, "HOP-62": {"test_system": "HOP-62"}, "UO-31": {"test_system": "UO-31"}, "SF-295": {"test_system": "SF-295"}, "SW-620": {"test_system": "SW-620"}, "SF-268": {"test_system": "SF-268"}, "OVCAR-3": {"test_system": "OVCAR-3"}, "RXF 393": {"test_system": "RXF 393"}, "TK-10": {"test_system": "TK-10"}, "EKVX": {"test_system": "EKVX"}, "COLO 205": {"test_system": "COLO 205"}, "SK-MEL-2": {"test_system": "SK-MEL-2"}},
  "note": "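Cells were grown in 96-well plates and exposed to each compound for 48 hours at five concentrations; endpoints were interpolated linearly between bracketing concentrations, or set to the highest concentration if not reached. GI50 is the concentration that inhibits growth by half.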 Activity calls are given as the source filed them. Cut-off read from the data, not from the text of the source: active = GI50 up to about 1.1 µM and inactive = higher.",
  "data": [
    {"molecule": "OC1CCN2Cc3ccccc3N=C12", "note": "(stereo not given)", "values": [
      {"measurement": "GI50", "setting": "SNB-19", "result": "> 100 µM (inactive)"},
      {"measurement": "GI50", "setting": "OVCAR-8", "result": "> 100 µM (inactive)"},
      {"measurement": "GI50", "setting": "MDA-N", "result": "> 100 µM (inactive)"},
      {"measurement": "GI50", "setting": "UACC-62", "result": "> 100 µM (inactive)"},
      {"measurement": "GI50", "setting": "Hs-578T", "result": "> 100 µM (inactive)"},
      {"measurement": "GI50", "setting": "ACHN", "result": "> 100 µM (inactive)"},
      {"measurement": "GI50", "setting": "BT-549", "result": "> 100 µM (inactive)"},
      {"measurement": "GI50", "setting": "DU-145", "result": "> 100 µM (inactive)"},
      {"measurement": "GI50", "setting": "HCT-15", "result": "> 100", "unit": "µM"},
      {"measurement": "GI50", "setting": "A549", "result": "> 100 µM (inactive)"},
      {"measurement": "GI50", "setting": "SK-OV-3", "result": "> 100 µM (inactive)"},
      {"measurement": "GI50", "setting": "LOX IMVI", "result": "> 100 µM (inactive)"},
      {"measurement": "GI50", "setting": "MOLT-4", "result": "> 100 µM (inactive)"},
      {"measurement": "GI50", "setting": "OVCAR-5", "result": "> 100 µM (inactive)"},
      {"measurement": "GI50", "setting": "HOP-92", "result": "> 100 µM (inactive)"},
      {"measurement": "GI50", "setting": "OVCAR-4", "result": "> 100 µM (inactive)"},
      {"measurement": "GI50", "setting": "HCT-116", "result": "> 100 µM (inactive)"},
      {"measurement": "GI50", "setting": "786-0", "result": "> 100 µM (inactive)"},
      {"measurement": "GI50", "setting": "SK-MEL-5", "result": "> 100 µM (inactive)"},
      {"measurement": "GI50", "setting": "PC-3", "result": "> 100 µM (inactive)"},
      {"measurement": "GI50", "setting": "CCRF-CEM", "result": "> 100 µM (inactive)"},
      {"measurement": "GI50", "setting": "NCI-H23", "result": "> 100 µM (inactive)"},
      {"measurement": "GI50", "setting": "SK-MEL-28", "result": "> 100 µM (inactive)"},
      {"measurement": "GI50", "setting": "SN12C", "result": "> 100 µM (inactive)"},
      {"measurement": "GI50", "setting": "HT-29", "result": "> 100 µM (inactive)"},
      {"measurement": "GI50", "setting": "M14", "result": "> 100 µM (inactive)"},
      {"measurement": "GI50", "setting": "A498", "result": "> 100 µM (inactive)"},
      {"measurement": "GI50", "setting": "NCI-H460", "result": "> 100 µM (inactive)"},
      {"measurement": "GI50", "setting": "HCC 2998", "result": "> 100 µM (inactive)"},
      {"measurement": "GI50", "setting": "MDA-MB-231", "result": "> 100 µM (inactive)"},
      {"measurement": "GI50", "setting": "U-251", "result": "> 100 µM (inactive)"},
      {"measurement": "GI50", "setting": "HL-60", "result": "> 100 µM (inactive)"},
      {"measurement": "GI50", "setting": "UACC-257", "result": "> 100 µM (inactive)"},
      {"measurement": "GI50", "setting": "CAKI-1", "result": "> 100 µM (inactive)"},
      {"measurement": "GI50", "setting": "RPMI-8226", "result": "> 100 µM (inactive)"},
      {"measurement": "GI50", "setting": "KM12", "result": "> 100 µM (inactive)"},
      {"measurement": "GI50", "setting": "NCI/ADR-RES", "result": "> 100 µM (inactive)"},
      {"measurement": "GI50", "setting": "MDA-MB-435", "result": "> 100 µM (inactive)"},
      {"measurement": "GI50", "setting": "K562", "result": "> 100 µM (inactive)"},
      {"measurement": "GI50", "setting": "Malme-3M", "result": "> 100 µM (inactive)"},
      {"measurement": "GI50", "setting": "SNB-75", "result": "> 100 µM (inactive)"},
      {"measurement": "GI50", "setting": "SF-539", "result": "> 100 µM (inactive)"},
      {"measurement": "GI50", "setting": "NCI-H226", "result": "> 100 µM (inactive)"},
      {"measurement": "GI50", "setting": "MCF7", "result": "> 100 µM (inactive)"},
      {"measurement": "GI50", "setting": "HOP-62", "result": "> 100 µM (inactive)"},
      {"measurement": "GI50", "setting": "UO-31", "result": "> 100 µM (inactive)"},
      {"measurement": "GI50", "setting": "SF-295", "result": "> 100 µM (inactive)"},
      {"measurement": "GI50", "setting": "SW-620", "result": "> 100 µM (inactive)"},
      {"measurement": "GI50", "setting": "SF-268", "result": "> 100 µM (inactive)"},
      {"measurement": "GI50", "setting": "OVCAR-3", "result": "> 100 µM (inactive)"},
      {"measurement": "GI50", "setting": "RXF 393", "result": "> 100 µM (inactive)"},
      {"measurement": "GI50", "setting": "TK-10", "result": "> 100 µM (inactive)"},
      {"measurement": "GI50", "setting": "EKVX", "result": "> 100 µM (inactive)"},
      {"measurement": "GI50", "setting": "COLO 205", "result": "> 100 µM (inactive)"},
      {"measurement": "GI50", "setting": "SK-MEL-2", "result": "> 100 µM (inactive)"}
    ]}
  ]
}
